According to US9278978B2, “6-Alkynyl Pyridine” (Boehringer Ingelheim International GmbH, priority 2013, dated 2016):
pIC50: −log10 of the molar value.

target: cIAP1 BIR3 (Homo sapiens (Human), UniProt Q13490); assay: cIAP1 BIR3 binding assay (DELFIA), BIR3 domain-SMAC peptide interaction; conditions: BIR3 domain 10 nM, SMAC peptide 10 nM; (S)-isomer (examples 1-34, 38-43) or racemate (examples 35-37); read-out: cIAP1 BIR-3 IC50
Description: XIAP BIR3 and cIAP1 BIR3 Binding Assays (DELFIA)
Peptide […]-Lys(Biotin), representing the N-terminus of mature human SMAC(SMAC peptide), was used as interaction partner in the protein-peptide interaction assay.
BIR3 domains (10 nM) were incubated with SMAC peptide (10 nM) in assay buffer (50 mM Tris, 120 mM NaCl, 0.1% BSA, 1 mM DTT, 0.05% TritonX100) for one hour at room temperature in the presence of inhibitory compounds. The assay mixture was transferred to a strepatvidin coated plate and incubated for one hour at room temperature to allow binding of the biotinylated peptide and associated BIR3 domains to the plate. After several washing steps Eu labeled anti-GST antibody (e.g. Perkin Elmer DELFIA Eu-N1-antiGST AD0250) was added to detect BIR3 domain-SMAC peptide interactions according to Perkin Elmer's instructions. […] Time resolved Europium fluorescence was measured in a Wallac Victor using Standard assay settings.
DELFIA assay results were plotted against compound concentrations and Software GraphPad Prizm was used to calculate half maximal inhibitory concentrations (IC50 values).

SMILES	pIC50
CNC(C)C(=O)Nc1cc(-c2cccc3cnn(C)c23)c(OC)c(C#Cc2ccccc2)n1 (stereo not shown) [Example 26, N-[5-methoxy-4-(1-methyl-1H-indazol-7-yl)-6-(2-phenylethynyl)pyridin-2-yl]-2-(methylamino)propanamide]	7.92
CNC(C)C(=O)Nc1cc(-c2ccc(C(F)(F)F)nc2)cc(C#Cc2ccccc2)n1 (stereo not shown) [Example 30, 2-(methylamino)-N-[6-(2-phenylethynyl)-4-[6-(trifluoromethyl)pyridin-3-yl]pyridin-2-yl]propanamide]	6.45
CNC(C)C(=O)Nc1cc(-c2cccnc2)cc(C#Cc2ccccc2)n1 (stereo not shown) [Example 34, 2-(methylamino)-N-[6-(2-phenyethynyl)-4-(pyridin-3-yl)pyridin-2-yl]propanamide]	6.60
CNC(C)C(=O)Nc1cc(-c2ncnc3c(C)nn(C)c23)cc(C#Cc2cc(C)nc(C)c2)n1 (stereo not shown) [Example 39, N-(4-{1,3-dimethyl-1H-pyrazolo[4,3-d]pyrimidin-7-yl}-6-[2-(2,6-dimethyl-pyridin-4-yl)ethynyl]pyridin-2-yl)-2-(methylamino)-propanamide]	9.00
CNC(C)C(=O)Nc1cc(-c2ncnc3c(C)nn(C)c23)cc(C#Cc2cc(F)cc(F)c2)n1 (stereo not shown) [Example 40, N-{6-[2-(3,5-difluorophenyl)ethynyl]-4-{1,3-dimethyl-1H-pyrazolo[4,3-d]pyrimidin-7-yl}pyridin-2-yl}-2-(methyl-amino)propanamide]	9.00
CNC(C)C(=O)Nc1cc(-c2ncnc3c(C)nn(C)c23)cc(C#Cc2ccc(-n3cnc(C)c3)cc2)n1 (stereo not shown) [Example 41, N-(4-{1,3-dimethyl-1H-pyrazolo[4,3-d]pyrimidin-7-yl}-6-{2-[4-(4-methyl-1H-imidazol-1-yl)phenyl]-ethynyl}pyridin-2-yl)-2-(methylamino)propanamide]	9.00
CNC(C)C(=O)Nc1cc(-c2ncnc3c(C)nn(C)c23)cc(C#Cc2cnc3c(cnn3C)c2)n1 (stereo not shown) [Example 43, N-(4-{1,3-dimethyl-1H-pyrazolo[4,3-d]pyrimidin-7-yl}-6-(2-{1-methyl-1H-pyrazolo[3,4-b]pyridin-5-yl}ethynyl)pyridin-2-yl)-2-(methylamino)propanamide]	9.00

The remaining compounds from weak to strong by pIC50, led by results:

pIC50	SMILES
5.40	CNC(C)C(=O)Nc1cc(-c2ccccc2F)cc(C#Cc2ccccc2)n1 (stereo not shown) [Example 32, N-[4-(2-fluorophenyl)-6-(2-phenylethynyl)pyridin-2-yl]-2-(methylamino)propanamide]
6.49	CNC(C)C(=O)Nc1cc(-c2ccc(OC)nc2)cc(C#Cc2ccccc2)n1 (stereo not shown) [Example 31, N-[4-(6-methoxypyridin-3-yl)-6-(2-phenylethynyl)pyridin-2-yl]-2-(methylamino)propanamide]
6.55	CNC(C)C(=O)Nc1cc(-c2ccncc2)cc(C#Cc2ccccc2)n1 (stereo not shown) [Example 28, 2-(methylamino)-N-[6-(2-phenylethynyl)-4-(pyridin-4-yl)pyridin-2-yl]propanamide]
6.87	CNC(C)C(=O)Nc1cc(-c2cccc3ncccc23)c(OC)c(C#Cc2ccccc2)n1 (stereo not shown) [Example 27, N-[5-methoxy-6-(2-phenylethynyl)-4-(quinolin-5-yl)pyridin-2-yl]-2-(methyl-amino)propanamide]
6.90	CNC(C)C(=O)Nc1cc(-c2cncc(F)c2)cc(C#Cc2ccccc2)n1 (stereo not shown) [Example 29, N-[4-(5-fluoropyridin-3-yl)-6-(2-phenylethynyl)pyridin-2-yl]-2-(methylamino)propanamide]
7.92	CNC(C)C(=O)Nc1cc(-c2cccc3cnn(C)c23)c(Cl)c(C#Cc2ccc3c(C)nccc3c2)n1 (stereo not shown) [Example 24, N-[5-chloro-4-(1-methyl-1H-indazol-7-yl)-6-[2-(1-methylisoquinolin-6-yl)ethynyl]pyridin-2-yl]-2-(methylamino)propanamide]
9.00	CNC(C)C(=O)Nc1cc(-c2nc(C)nc3nn(C)c(C)c23)cc(C#Cc2cccs2)n1 (stereo not shown) [Example 22, 2-(methylamino)-N-{6-[2-(thiophen-2-yl)ethynyl]-4-{trimethyl-2H-pyrazolo[3,4-d]pyrimidin-4-yl}pyridin-2-yl}propanamide]
9.00	CNC(C)C(=O)Nc1cc(-c2ncnc3c(C)nn(C)c23)cc(C#Cc2ccc3nc(C)ccc3c2)n1 (stereo not shown) [Example 38, N-(4-{1,3-dimethyl-1H-pyrazolo[4,3-d]pyrimidin-7-yl}-6-[2-(2-methylquinolin-6-yl)ethynyl]pyridin-2-yl)-2-(methylamino)propanamide]
9.00	CNC(C)C(=O)Nc1cc(-c2ncnc3c(C)nn(C)c23)cc(C#Cc2cc(F)c3ncccc3c2)n1 (stereo not shown) [Example 42, N-(4-{1,3-dimethyl-1H-pyrazolo[4,3-d]pyrimidin-7-yl}-6-[2-(8-fluoroquinolin-6-yl)ethynyl]pyridin-2-yl)-2-(methylamino)propanamide]
